Experimental findings from US10858367B2, “Compounds” (GLAXOSMITHKLINE INTELLECTUAL PROPERTY DEVELOPMENT LIMITED, priority 2017, dated 2020) are described below.

This test addresses T1, LRRK2 Ser935 phosphorylation in SH-SY5Y cells over-expressing recombinant full length LRRK2 (Homo sapiens, UniProt Q5S007).
T1 construct: A BacMam virus expressing full length recombinant LRRK2 was purchased from Invitrogen; host or cells: SH-SY5Y human neuroblastoma cells transduced with BacMam LRRK2 virus
Kind of test: Recombinant cellular LRRK2 AlphaScreen assay. The class given is cell-based. The settings on record: human neuroblastoma SH-SY5Y cells, BacMam full length LRRK2, 60 minutes with compound, read-out: pIC50 in the recombinant cellular LRRK2 AlphaScreen assay (converted). The text has this:
b. Recombinant Cellular LRRK2 AlphaScreen Assay
To determine the activity of compounds against LRRK2 kinase activity in cells, the observed LRRK2 kinase-dependent modulation of LRRK2 Ser 935 phosphorylation (Dzamko et al., 2010, Biochem. J. 430: 405-413) was utilized to develop a quantitative 384 well plate-based immunoassay of LRRK2 Ser935 phosphorylation in the human neuroblastoma cell line SH-SY5Y, engineered to over-express recombinant full length LRRK2 protein.
A BacMam virus expressing full length recombinant LRRK2 was purchased from Invitrogen and amplified by inoculation of SF-9 cells at MOI 0.3 for 4-5 days in Sf-900 III SFM medium supplemented with 3% fetal bovine serum. Infected cell cultures were then centrifuged at 2000 g for 20 minutes, viral supernatant titer determined by anti-gp64 plaque assay and stored at 4° C.
Affinity-purified anti-phospho LRRK2 Ser935 sheep polyclonal antibody (Dzamko et al., 2010, Biochem. J. 430: 405-413) was biotinylated by standard methods (PerkinElmer). Anti-LRRK2 rabbit polyclonal antibody was purchased from Novus Biologicals. AlphaScreen Protein A IgG Kit (including acceptor and donor beads) was purchased from Perkin Elmer.
SH-SY5Y cells were grown in DMEM/F12 medium with 10% dialysed fetal bovine serum and harvested by treatment with 0.5% trypsin-EDTA for 5 minutes at 37° C. followed by centrifugation at 1000 rpm for 4 minutes. The cell pellet was resuspended in Opti-MEM reduced serum media (Invitrogen) at 200,000 cells/ml and mixed with the BacMam LRRK2 virus at MOI=50. 50 μl cell solutions were then dispensed to each well of a 384-well plate and incubated at 37° C., 5% CO2 for 24 hours.
Serial dilutions of test compounds were prepared in Opti-MEM reduced serum media (Invitrogen) and 5.6 ul transferred from compound plate to cell assay plate to achieve a top final assay concentration of 10 uM. DMSO was used in certain wells as controls. Cells were incubated at 37° C., 5% CO2 for 60 minutes. The medium was then removed and cells lysed by addition of 20 ul cell lysis buffer (Cell Signaling Technology) and incubation at 4° C. for 20 minutes. 10 ul of antibody/acceptor bead mix [(1/1000 biotinylated-pS935 LRRK2 antibody, 1/1000 total-LRRK2 antibody, 1/100 Acceptor beads in AlphaScreen detection buffer (25 mM Hepes (pH 7.4), 0.5% Triton X-100, 1 mg/ml Dextran 500 and 0.1% BSA)] was then added to each well and plates incubated for 2 hours at ambient temperature in the dark. 10 μl of donor beads solution (1/33.3 donor beads in AlphaScreen detection buffer) was then added to each well. Following incubation for a further 2 hours at ambient temperature in the dark, plates were read on an EnVision™ plate reader at emission 520-620 nm with excitation 680 nm. Dose response curve data was based on sigmoidal dose-response model.
(Alpha assays give light when donor and acceptor beads are brought close together.)

T1 sequence (Q5S007 whole entry): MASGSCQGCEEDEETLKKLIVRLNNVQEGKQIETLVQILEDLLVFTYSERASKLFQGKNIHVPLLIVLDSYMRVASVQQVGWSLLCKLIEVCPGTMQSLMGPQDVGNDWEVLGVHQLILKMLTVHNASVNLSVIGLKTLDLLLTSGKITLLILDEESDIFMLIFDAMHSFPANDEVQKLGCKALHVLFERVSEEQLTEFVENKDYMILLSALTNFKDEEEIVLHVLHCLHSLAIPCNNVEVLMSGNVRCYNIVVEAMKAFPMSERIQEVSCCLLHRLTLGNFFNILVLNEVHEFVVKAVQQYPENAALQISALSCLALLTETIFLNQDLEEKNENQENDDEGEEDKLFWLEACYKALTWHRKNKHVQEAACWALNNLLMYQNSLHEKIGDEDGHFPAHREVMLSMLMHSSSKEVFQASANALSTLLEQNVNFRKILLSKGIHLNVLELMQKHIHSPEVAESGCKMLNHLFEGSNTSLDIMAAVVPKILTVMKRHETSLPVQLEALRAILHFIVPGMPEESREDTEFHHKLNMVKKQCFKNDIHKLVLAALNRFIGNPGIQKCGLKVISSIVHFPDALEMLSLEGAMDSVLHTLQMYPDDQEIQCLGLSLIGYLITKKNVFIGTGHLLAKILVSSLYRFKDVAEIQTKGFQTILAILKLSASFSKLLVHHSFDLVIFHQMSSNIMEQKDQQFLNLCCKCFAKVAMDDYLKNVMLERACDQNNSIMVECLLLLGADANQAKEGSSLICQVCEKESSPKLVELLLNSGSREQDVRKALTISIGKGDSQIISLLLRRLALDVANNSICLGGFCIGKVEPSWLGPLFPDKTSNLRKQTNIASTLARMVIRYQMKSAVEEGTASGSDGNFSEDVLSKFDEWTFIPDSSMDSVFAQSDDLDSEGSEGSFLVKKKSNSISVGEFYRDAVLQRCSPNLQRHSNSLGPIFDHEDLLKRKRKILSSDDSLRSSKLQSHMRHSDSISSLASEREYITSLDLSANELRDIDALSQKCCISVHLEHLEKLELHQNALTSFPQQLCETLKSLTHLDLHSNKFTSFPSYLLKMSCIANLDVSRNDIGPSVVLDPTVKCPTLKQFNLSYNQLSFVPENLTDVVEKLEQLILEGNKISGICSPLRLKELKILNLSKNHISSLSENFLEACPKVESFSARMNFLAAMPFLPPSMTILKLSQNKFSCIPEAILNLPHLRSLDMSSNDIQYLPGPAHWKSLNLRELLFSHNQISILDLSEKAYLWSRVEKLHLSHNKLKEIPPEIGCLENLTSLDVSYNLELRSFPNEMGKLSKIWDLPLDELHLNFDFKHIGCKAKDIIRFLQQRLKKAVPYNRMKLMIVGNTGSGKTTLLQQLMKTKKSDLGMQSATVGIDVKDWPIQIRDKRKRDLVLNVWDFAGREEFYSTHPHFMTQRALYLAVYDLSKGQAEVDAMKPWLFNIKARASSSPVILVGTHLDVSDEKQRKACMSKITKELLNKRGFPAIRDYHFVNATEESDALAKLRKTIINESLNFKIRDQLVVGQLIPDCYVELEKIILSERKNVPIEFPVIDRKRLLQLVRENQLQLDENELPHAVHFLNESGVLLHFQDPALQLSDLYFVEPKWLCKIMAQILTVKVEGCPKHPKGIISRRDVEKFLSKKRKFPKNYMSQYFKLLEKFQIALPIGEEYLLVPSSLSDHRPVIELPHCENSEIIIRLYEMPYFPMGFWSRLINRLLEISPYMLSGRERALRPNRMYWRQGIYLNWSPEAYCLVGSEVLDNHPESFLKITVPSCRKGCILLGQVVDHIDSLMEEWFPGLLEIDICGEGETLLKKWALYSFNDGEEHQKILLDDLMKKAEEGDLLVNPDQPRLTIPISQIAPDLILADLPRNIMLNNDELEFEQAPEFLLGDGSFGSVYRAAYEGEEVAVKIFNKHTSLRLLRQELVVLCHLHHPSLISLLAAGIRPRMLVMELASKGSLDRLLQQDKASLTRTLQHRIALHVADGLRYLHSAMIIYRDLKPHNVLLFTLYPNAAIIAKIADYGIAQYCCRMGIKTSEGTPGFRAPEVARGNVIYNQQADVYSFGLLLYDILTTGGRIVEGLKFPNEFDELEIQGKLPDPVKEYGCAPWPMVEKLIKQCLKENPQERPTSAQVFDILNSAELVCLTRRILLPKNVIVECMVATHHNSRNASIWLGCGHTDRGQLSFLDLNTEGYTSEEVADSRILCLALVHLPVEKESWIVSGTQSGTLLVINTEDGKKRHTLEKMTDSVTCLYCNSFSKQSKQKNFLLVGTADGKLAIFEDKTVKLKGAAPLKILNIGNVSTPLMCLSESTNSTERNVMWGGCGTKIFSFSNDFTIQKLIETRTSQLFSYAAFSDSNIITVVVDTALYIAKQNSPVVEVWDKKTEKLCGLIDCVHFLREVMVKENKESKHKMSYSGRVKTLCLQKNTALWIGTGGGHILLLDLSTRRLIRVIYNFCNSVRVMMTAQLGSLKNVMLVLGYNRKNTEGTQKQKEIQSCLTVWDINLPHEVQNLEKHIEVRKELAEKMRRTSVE

With `Cc1nc(N2CC3CC2CO3)cc(-n2ncc3cc(C)c(C4CCN(C5COC5)CC4O)cc32)n1` (single isomer, unassigned) [Example E141], the IC50 was at most 1000 nM.
As to `COc1nc(N2C[C@@H]3C[C@H]2CO3)cc(-n2ncc3cc(C)c(C4CCN(CCF)CC4)cc32)n1` [Example E38, (1S,4S)-5-(6-(6-(1-(2-fluoroethyl)piperidin-4-yl)-5-methyl-1H-indazol-1-yl)-2-methoxypyrimidin-4-yl)-2-oxa-5-azabicyclo[2.2.1]heptane], the IC50 was at most 1000 nM.
As for `[2H]C1(N2CCC(c3cc4c(cnn4-c4cc(N5C[C@H]6C[C@@H]5CO6)nc(OC)n4)cc3C)CC2)COC1` [Example E56, (1R,4R)-5-(6-(6-(1-(3-deuterooxetan-3-yl)piperidin-4-yl)-5-methyl-1H-indazol-1-yl)-2-methoxypyrimidin-4-yl)-2-oxa-5-azabicyclo[2.2.1]heptane], the figure is at most 10 nM; as for `Cc1nc(N2C[C@@H]3C[C@H]2CO3)cc(-n2ncc3cc(C)c(C4CCN(C(=O)CO)CC4)cc32)n1` [Example E54, 1-(4-(1-(6-((1S,4S)-2-oxa-5-azabicyclo[2.2.1]heptan-5-yl)-2-methylpyrimidin-4-yl)-5-methyl-1H-indazol-6-yl)piperidin-1-yl)-2-hydroxyethanone], at most 1000 nM.
In the case of `Cc1nc(N2CC3CC2CO3)cc(-n2ncc3cc(C)c([C@H]4CC[C@@](C)(O)CC4)cc32)n1` (single isomer, unassigned) [Example E9] it was at most 1000 nM; in that of `COc1nc(N2CC3CCC(C2)O3)cc(-n2ncc3cc(C)c(C4CCN(C5COC5)CC4)cc32)n1` [Example E41, 3-(2-Methoxy-6-(5-methyl-6-(1-(oxetan-3-yl)piperidin-4-yl)-1H-indazol-1-yl)pyrimidin-4-yl)-8-oxa-3-azabicyclo[3.2.1]octane], at most 1000 nM.
As for `COc1nc(N2C[C@@H]3C[C@H]2CO3)cc(-n2ncc3cc(C)c(C4CCN(C5COC5)CC4)cc32)n1` [Example E2, (1S,4S)-5-(2-methoxy-6-(5-methyl-6-(1-(oxetan-3-yl)piperidin-4-yl)-1H-indazol-1-yl)pyrimidin-4-yl)-2-oxa-5-azabicyclo[2.2.1]heptane], the figure is at most 1000 nM; as for `COc1nc(N2C[C@H]3C[C@@H]2CO3)cc(-n2ncc3cc(C)c(C4CCNCC4)cc32)n1` [Example E58, (1R,4R)-5-(2-methoxy-6-(5-methyl-6-(piperidin-4-yl)-1H-indazol-1-yl)pyrimidin-4-yl)-2-oxa-5-azabicyclo[2.2.1]heptane], at most 1000 nM; as for `Cc1nc(N2CC3(CO)CC2CO3)cc(-n2ncc3cc(C)c(C4CCN(C5CCOC5)CC4)cc32)n1` (single isomer, unassigned) [Example E153, (5-(2-methyl-6-(5-methyl-6-(1-(tetrahydrofuran-3-yl)piperidin-4-yl)-1H-indazol-1-yl)pyrimidin-4-yl)-2-oxa-5-azabicyclo[2.2.1]heptan-1-yl)methanol], at most 1000 nM.
Regarding `Cc1nc(N2C[C@@H]3C[C@H]2CO3)cc(-n2ncc3cc(C)c(C4CCN(CCO)CC4F)cc32)n1` (single isomer, unassigned) [Example E21], the IC50 is at most 1000 nM.
Turning to `[2H]C([2H])([2H])Oc1nc(N2C[C@@H]3C[C@H]2CO3)cc(-n2ncc3cc(C)c(C4CCN(C5COC5)CC4)cc32)n1` [Example E73, (1S,4S)-5-(6-(5-methyl-6-(1-(oxetan-3-yl)piperidin-4-yl)-1H-indazol-1-yl)-2-(trideuteriummethoxy)pyrimidin-4-yl)-2-oxa-5-azabicyclo[2.2.1]heptane], the IC50 was at most 1000 nM.
For the molecule `COc1nc(N2C[C@@H]3C[C@H]2CO3)cc(-n2ncc3cc(C)c(C4CCNCC4)cc32)n1` [Example E59, (1S,4S)-5-(2-methoxy-6-(5-methyl-6-(piperidin-4-yl)-1H-indazol-1-yl)pyrimidin-4-yl)-2-oxa-5-azabicyclo[2.2.1]heptane], the IC50 is at most 1000 nM.
As for `COc1nc(N2C[C@H]3C[C@@H]2CO3)cc(-n2ncc3cc(Cl)c(C4CCN(C5COC5)CC4)cc32)n1` [Example E5, (1R,4R)-5-(6-(5-chloro-6-(1-(oxetan-3-yl)piperidin-4-yl)-1H-indazol-1-yl)-2-methoxypyrimidin-4-yl)-2-oxa-5-azabicyclo[2.2.1]heptane], the figure is at most 10 nM; as for `COc1nc(N2C[C@H]3C[C@@H]2CO3)cc(-n2ncc3cc(C)c(C4CCN(CCO)CC4)cc32)n1` [Example E27, 2-(4-(1-(6-((1R,4R)-2-oxa-5-azabicyclo[2.2.1]heptan-5-yl)-2-methoxypyrimidin-4-yl)-5-methyl-1H-indazol-6-yl)piperidin-1-yl)ethanol], at most 1000 nM.
As for `COc1nc(N2C[C@H]3C[C@@H]2CO3)cc(-n2ncc3cc(Cl)c(C4CCN(C5CCOC5)CC4)cc32)n1` (single isomer, unassigned) [Example E67], the figure is at most 1000 nM; as for `COc1nc(N2C[C@@H]3C[C@H]2CO3)cc(-n2ncc3cc(C)c(C4CCN(CCC(=O)O)CC4)cc32)n1` [Example E165, 3-(4-(1-(6-((1S,4S)-2-oxa-5-azabicyclo[2.2.1]heptan-5-yl)-2-methoxypyrimidin-4-yl)-5-methyl-1H-indazol-6-yl)piperidin-1-yl)propanoic Acid], at most 1000 nM; as for `COc1nc(N2CC3CC(C2)C3C(=O)O)cc(-n2ncc3cc(C)c(OC(C)C)cc32)n1` (stereo not shown) [Example E81, 3-(6-(6-isopropoxy-5-methyl-1H-indazol-1-yl)-2-methoxypyrimidin-4-yl)-3-azabicyclo[3.1.1]heptane-6-carboxylic Acid], at most 10 nM.
In the case of `COc1nc(N2C[C@@H]3C[C@H]2CO3)cc(-n2ncc3cc(C)c(C4CCN(CCO)CC4F)cc32)n1` (single isomer, unassigned) [Example E19] it was at most 1000 nM; in that of `Cc1nc(N2C[C@@H]3C[C@H]2CO3)cc(-n2ncc3cc(C)c(C4CCN(C5COC5)CC4)cc32)n1` [Example E40, (1S,4S)-5-(2-methyl-6-(5-methyl-6-(1-(oxetan-3-yl)piperidin-4-yl)-1H-indazol-1-yl)pyrimidin-4-yl)-2-oxa-5-azabicyclo[2.2.1]heptane], at most 1000 nM; in that of `COc1nc(N2CC3CC2CO3)cc(-n2ncc3cc(C)c(C4CCN(CCO)CC4F)cc32)n1` (single isomer, unassigned) [Example E18], at most 10 nM.
Turning to `Cc1nc(N2C[C@@H]3C[C@H]2CO3)cc(-n2ncc3cc(C)c(C4CCN(C5CCOC5)CC4F)cc32)n1` (single isomer, unassigned) [Example E151], the IC50 was at most 1000 nM.
`Cc1nc(N2C[C@@H]3C[C@H]2CO3)cc(-n2ncc3cc(Cl)c(C4CCN(C5COC5)CC4)cc32)n1` [Example E26, (1S,4S)-5-(6-(5-chloro-6-(1-(oxetan-3-yl)piperidin-4-yl)-1H-indazol-1-yl)-2-methylpyrimidin-4-yl)-2-oxa-5-azabicyclo[2.2.1]heptane]: the IC50 is at most 1000 nM.
As to `Cc1nc(N2C[C@H]3C[C@@H]2CO3)cc(-n2ncc3cc(C)c(C4CCN(CCC(=O)O)CC4F)cc32)n1` (single isomer, unassigned) [Example E155], the IC50 was at most 1000 nM.
In the case of `Cc1nc(N2C[C@@H]3C[C@H]2CO3)cc(-n2ncc3cc(C)c(C4CCN(CCO)CC4)cc32)n1` [Example E52, 2-(4-(1-(6-((1S,4S)-2-oxa-5-azabicyclo[2.2.1]heptan-5-yl)-2-methylpyrimidin-4-yl)-5-methyl-1H-indazol-6-yl)piperidin-1-yl)ethanol] it was at most 1000 nM; in that of `Cc1nc(N2CC3CC2CO3)cc(-n2ncc3cc(C)c(C4CCN(CCO)CC4F)cc32)n1` (single isomer, unassigned) [Example E23], at most 1000 nM.
